ChEMBL document CHEMBL3784917, “Recent Progress in Histone Demethylase Inhibitors” (J Med Chem, 2016)

Columns and labels:
[1] = target: T1, Lysine-specific demethylase 2B (Homo sapiens, UniProt Q8NHM5); assay: biochemical
T1 sequence (Q8NHM5 whole entry): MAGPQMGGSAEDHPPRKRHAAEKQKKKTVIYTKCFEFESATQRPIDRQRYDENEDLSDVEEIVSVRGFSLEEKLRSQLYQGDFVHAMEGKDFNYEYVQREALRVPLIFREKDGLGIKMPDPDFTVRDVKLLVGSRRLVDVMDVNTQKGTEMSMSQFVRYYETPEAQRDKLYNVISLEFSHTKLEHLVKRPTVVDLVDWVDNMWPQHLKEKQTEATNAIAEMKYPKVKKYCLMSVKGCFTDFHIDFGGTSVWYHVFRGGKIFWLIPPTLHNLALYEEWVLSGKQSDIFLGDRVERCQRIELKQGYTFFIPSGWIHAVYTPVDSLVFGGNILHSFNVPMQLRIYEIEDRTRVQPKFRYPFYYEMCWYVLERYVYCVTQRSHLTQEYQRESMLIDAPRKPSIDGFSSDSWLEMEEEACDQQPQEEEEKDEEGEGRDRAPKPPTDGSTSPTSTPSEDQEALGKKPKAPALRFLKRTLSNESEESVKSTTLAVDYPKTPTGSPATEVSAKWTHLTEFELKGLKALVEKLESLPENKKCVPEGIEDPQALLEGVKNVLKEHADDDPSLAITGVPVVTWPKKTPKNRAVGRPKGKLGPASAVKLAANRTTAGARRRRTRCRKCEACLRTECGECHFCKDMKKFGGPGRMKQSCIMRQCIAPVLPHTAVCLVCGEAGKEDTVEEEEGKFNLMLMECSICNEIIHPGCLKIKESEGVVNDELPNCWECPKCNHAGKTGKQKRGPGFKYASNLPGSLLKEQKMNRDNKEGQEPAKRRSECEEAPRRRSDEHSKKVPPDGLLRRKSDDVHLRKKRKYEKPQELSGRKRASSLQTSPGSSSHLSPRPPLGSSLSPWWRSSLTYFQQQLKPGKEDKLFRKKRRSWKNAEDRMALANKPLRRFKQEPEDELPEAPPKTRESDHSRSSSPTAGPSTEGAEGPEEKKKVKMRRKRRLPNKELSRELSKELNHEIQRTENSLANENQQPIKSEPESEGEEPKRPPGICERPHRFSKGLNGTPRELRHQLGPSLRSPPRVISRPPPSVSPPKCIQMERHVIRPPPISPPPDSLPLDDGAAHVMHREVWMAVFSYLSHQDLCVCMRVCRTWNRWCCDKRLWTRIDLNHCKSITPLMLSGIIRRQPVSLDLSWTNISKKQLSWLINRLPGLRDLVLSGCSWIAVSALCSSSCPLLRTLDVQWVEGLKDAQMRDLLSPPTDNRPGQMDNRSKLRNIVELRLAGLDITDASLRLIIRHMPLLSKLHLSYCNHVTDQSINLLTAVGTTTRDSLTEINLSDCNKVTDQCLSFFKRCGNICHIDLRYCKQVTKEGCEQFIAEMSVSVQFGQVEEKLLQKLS

[2] = target: Lysine-specific demethylase 5C (Homo sapiens, UniProt P41229); assay: biochemical
Chain of Lysine-specific demethylase 5C (P41229 whole entry, the tested form may be a part): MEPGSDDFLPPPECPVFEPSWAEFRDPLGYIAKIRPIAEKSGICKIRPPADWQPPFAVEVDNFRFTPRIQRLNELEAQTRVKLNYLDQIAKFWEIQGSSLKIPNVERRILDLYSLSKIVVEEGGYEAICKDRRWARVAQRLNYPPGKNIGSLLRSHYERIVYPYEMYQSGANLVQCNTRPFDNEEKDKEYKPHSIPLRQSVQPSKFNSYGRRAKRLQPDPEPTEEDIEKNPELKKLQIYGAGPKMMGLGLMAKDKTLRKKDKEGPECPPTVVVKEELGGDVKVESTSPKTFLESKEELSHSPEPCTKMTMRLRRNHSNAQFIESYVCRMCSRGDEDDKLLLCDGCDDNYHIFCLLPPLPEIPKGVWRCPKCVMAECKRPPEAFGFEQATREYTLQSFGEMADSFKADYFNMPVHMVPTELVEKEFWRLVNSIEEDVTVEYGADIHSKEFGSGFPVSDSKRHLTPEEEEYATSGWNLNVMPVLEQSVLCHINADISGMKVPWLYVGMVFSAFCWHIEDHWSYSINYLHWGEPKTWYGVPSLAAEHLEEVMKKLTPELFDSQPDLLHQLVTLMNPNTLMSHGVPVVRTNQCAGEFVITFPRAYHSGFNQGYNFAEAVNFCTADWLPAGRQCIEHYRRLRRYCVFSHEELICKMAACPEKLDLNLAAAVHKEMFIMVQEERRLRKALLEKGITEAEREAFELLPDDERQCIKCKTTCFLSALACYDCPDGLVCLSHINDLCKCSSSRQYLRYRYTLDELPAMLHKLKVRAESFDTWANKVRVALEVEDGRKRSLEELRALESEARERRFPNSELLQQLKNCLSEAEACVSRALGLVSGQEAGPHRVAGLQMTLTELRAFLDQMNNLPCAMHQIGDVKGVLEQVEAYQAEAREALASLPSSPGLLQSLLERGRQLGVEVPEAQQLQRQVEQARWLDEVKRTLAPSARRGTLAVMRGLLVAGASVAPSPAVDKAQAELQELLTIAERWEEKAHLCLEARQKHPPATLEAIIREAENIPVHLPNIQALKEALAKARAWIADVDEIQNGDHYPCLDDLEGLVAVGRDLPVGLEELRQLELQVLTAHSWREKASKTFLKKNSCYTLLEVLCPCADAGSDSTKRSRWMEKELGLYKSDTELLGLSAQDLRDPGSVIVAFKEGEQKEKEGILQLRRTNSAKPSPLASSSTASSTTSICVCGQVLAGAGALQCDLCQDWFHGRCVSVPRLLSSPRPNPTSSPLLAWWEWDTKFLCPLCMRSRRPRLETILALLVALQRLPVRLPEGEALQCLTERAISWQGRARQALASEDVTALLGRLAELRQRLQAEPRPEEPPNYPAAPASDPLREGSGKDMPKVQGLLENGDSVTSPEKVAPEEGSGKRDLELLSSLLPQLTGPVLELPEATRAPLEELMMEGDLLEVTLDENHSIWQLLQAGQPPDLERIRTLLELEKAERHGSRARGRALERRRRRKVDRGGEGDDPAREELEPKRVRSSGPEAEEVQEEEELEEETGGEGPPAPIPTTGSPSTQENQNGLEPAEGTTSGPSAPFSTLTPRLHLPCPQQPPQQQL

[3] = target: T2, Lysine-specific demethylase 4A (Homo sapiens, UniProt O75164); assay: Inhibition of recombinant human N-terminal His-tagged KDM4A (1 to 350 residues) expressed in Escherichia coli using methylated biotin-H3K9 substrate preincubated for 10 mins followed by substrate addition measured after 10 mins by AlphaLisa assay
T2 sequence (O75164 whole entry): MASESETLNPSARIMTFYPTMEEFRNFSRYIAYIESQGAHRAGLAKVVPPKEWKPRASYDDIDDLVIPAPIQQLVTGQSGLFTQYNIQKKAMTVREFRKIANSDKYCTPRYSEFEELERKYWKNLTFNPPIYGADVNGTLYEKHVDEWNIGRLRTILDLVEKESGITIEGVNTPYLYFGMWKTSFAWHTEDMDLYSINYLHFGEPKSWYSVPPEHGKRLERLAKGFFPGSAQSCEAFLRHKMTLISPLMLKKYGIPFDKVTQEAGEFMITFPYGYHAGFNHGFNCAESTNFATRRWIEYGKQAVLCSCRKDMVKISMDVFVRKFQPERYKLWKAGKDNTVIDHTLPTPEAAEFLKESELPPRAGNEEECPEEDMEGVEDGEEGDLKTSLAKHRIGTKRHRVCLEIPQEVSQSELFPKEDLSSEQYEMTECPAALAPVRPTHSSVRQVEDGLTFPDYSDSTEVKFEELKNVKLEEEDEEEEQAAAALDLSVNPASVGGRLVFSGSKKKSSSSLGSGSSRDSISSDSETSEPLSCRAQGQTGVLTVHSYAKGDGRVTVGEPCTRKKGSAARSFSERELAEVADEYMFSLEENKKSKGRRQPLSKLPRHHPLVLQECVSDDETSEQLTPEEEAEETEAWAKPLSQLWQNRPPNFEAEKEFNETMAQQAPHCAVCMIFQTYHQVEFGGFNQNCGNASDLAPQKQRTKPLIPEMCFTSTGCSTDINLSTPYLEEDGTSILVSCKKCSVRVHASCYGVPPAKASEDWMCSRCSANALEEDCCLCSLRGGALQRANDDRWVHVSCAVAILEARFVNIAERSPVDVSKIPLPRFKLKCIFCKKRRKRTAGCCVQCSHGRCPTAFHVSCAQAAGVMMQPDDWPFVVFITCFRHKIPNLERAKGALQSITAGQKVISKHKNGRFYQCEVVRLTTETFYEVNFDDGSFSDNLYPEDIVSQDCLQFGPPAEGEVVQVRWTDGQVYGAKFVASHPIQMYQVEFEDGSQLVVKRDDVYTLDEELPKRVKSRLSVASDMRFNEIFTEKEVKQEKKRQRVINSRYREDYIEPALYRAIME

[4] = target: Lysine-specific demethylase 3B (Homo sapiens, UniProt Q7LBC6); assay: biochemical
Chain of Lysine-specific demethylase 3B (Q7LBC6 whole entry): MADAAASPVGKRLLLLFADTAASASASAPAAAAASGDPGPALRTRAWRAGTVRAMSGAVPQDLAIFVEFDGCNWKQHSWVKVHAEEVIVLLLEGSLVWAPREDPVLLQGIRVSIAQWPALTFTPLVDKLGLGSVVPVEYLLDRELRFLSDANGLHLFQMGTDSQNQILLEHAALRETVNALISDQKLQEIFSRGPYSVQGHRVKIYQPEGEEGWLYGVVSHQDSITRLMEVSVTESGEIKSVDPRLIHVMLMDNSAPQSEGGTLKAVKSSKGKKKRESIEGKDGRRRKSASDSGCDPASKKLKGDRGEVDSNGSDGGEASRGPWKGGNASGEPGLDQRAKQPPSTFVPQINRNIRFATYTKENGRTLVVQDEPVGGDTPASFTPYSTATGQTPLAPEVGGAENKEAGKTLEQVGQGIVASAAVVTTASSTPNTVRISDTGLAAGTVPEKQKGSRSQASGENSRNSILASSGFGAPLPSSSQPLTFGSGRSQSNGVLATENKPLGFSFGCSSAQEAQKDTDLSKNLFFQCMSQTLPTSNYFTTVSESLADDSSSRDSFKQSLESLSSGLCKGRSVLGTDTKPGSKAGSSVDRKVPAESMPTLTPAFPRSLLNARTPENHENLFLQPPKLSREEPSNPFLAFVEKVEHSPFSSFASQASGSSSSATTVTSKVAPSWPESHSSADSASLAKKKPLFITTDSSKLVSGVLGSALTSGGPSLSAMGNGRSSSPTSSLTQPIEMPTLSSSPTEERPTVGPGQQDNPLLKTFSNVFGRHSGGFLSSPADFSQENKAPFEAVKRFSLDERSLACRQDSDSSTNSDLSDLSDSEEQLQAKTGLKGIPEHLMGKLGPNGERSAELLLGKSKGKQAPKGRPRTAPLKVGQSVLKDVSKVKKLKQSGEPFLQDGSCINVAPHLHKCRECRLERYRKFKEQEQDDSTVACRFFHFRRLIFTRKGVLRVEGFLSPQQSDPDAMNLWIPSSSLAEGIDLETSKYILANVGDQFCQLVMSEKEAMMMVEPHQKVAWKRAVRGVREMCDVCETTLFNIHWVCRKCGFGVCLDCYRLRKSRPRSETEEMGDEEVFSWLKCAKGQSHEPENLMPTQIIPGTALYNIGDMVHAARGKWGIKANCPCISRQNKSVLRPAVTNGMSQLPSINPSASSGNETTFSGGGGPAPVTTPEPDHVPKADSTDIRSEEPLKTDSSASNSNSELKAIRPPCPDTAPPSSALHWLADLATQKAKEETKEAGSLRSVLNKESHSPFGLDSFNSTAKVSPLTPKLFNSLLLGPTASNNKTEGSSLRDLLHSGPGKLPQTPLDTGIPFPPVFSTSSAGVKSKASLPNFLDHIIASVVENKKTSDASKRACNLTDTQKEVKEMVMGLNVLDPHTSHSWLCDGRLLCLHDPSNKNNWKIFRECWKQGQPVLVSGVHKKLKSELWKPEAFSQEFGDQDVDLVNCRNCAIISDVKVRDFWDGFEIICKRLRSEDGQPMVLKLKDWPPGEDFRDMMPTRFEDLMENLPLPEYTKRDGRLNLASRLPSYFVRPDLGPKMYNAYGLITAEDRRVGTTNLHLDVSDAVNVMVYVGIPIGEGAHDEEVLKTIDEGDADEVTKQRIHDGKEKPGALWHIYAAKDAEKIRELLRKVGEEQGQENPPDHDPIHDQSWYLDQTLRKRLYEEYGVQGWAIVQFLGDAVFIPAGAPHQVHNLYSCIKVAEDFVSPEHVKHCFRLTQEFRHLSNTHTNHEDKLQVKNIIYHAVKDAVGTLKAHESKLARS

IC50 [1] [nM]	IC50 [2] [nM]	IC50 [3] [nM]	IC50 [4] [nM]	SMILES
> 2500	< 250	> 2500	> 2500	CCN(CC)CCCCNCc1cc(C=O)ccn1
100	< 100	< 100	> 1000	CCN(CCN(C)C)C(=O)CNCc1cc(C(=O)O)ccn1
> 2500	250	> 2500	> 2500	CCN(CCN(C)C)C(=O)CNCc1cc(CNC(=O)C(F)(F)F)ccn1
